Assay results as given in patent US6660804B1, “Cyclodextrin polymers and/or cyclodextrin derivatives with complexing properties and ion-exchange properties and method for the production thereof” (Universite des Sciences et Technologies de Lille, priority 1999, dated 2003).

Key:
[1] = Diffusion of 2-naphthol through 12000-14000 d dialysis membrane (complexing); assay type: physicochemical; conditions: 50 ml 10^-3 M 2-naphthol plus 0.2837 g β cyclodextrin or 0.3317 g copolymer inside membrane, 250 ml distilled water outside, after 76 hours of dialysis; 2-naphthol alone 0.2865
Experimental: Three solutions of 50 ml of 10−3 M 2-naphthol were introduced into 12000-14000 d dialysis membranes. The first fraction contained 2-naphthol alone; the second contained the dye and 0.2837 g of β cyclodextrin (i.e., 5×10^−3 mol/l); the third contained the dye and 0.3317 g of the soluble cyclodextrin copolymer obtained using the method described in Example 1. The three membranes with the three different dye solutions were each immersed in 250 ml of distilled water. Diffusion of the dye from the interior of the membrane into the distilled water surrounding the membrane was monitored by determining the absorbance of the external solution at 327 nm. The absorbance values obtained for the external solutions for the three fractions after 76 hours of dialysis were 0.2865 for the first fraction, 0.3030 for the second fraction and only 0.2574 for the third fraction.

[2] = Diffusion of CI Basic Red 22 through 12000-14000 d dialysis membrane (complexing); assay type: physicochemical; conditions: 50 ml 10^-4 M dye plus 0.2837 g additive inside membrane, 250 ml distilled water outside, after 5 hours of dialysis; dye alone 0.2722
Experimental: Three solutions of 50 ml of 10^−4 M CI Basic Red 22 basic dye were introduced into 12000-14000 d dialysis membranes. The first fraction contained the dye alone; the second contained the dye and 0.2837 g of β cyclodextrin (i.e., 5×10^−3 mol/l); the third contained the dye and 0.2837 g of soluble cyclodextrin copolymer obtained using the method described in Example 1. The three membranes with the three different dye solutions were each immersed in 250 ml of distilled water. Diffusion of the dye from the interior of the membrane into the distilled water surrounding the membrane was monitored by determining the absorbance of the external solution at 540 nanometers (nm). The absorbance values obtained for the external solutions for the three fractions after 5 hours of dialysis were 0.2722 for the first fraction, 0.1873 for the second fraction and only 0.0237 for the third fraction.

OC[C@H]1O[C@@H]2O[C@H]3[C@H](O)[C@@H](O)[C@@H](O[C@H]4[C@H](O)[C@@H](O)[C@@H](O[C@H]5[C@H](O)[C@@H](O)[C@@H](O[C@H]6[C@H](O)[C@@H](O)[C@@H](O[C@H]7[C@H](O)[C@@H](O)[C@@H](O[C@H]8[C@H](O)[C@@H](O)[C@@H](O[C@H]1[C@H](O)[C@H]2O)O[C@@H]8CO)O[C@@H]7CO)O[C@@H]6CO)O[C@@H]5CO)O[C@@H]4CO)O[C@@H]3CO [β cyclodextrin]
absorbance of the external solution at 327 nm [1]: 0.3030
absorbance of the external solution at 540 nm [2]: 0.1873
